Experimental data: patent US10709790B2, “Chemical conjugates of Evans Blue derivatives and their use in the production of long-acting therapeutics” (THE UNITED STATES OF AMERICA, AS REPRESENTED BY THE …, priority 2015, dated 2020)

Experiments:
blood glucose = experiment: Plasma glucose levels in Type 2 diabetic cynomolgus monkeys; format: in vivo; conditions: one-time s.c. injection; Abextide II 165 ug/kg, albiglutide 0.9 mg/kg; compared to placebo
Experimental: (§1) The efficacy and pharmacokinetics of MEB-C3-Cys40-Extendin 4 (Abextide II) was studied in primates. Nine Type 2 diabetic cynomolgus monkeys were separated into 3 groups and each group was injected with one of albiglutide (positive control, 0.9 mg/kg), Abextide II (165 μg/kg), or a saline placebo, as a one-time subcutaneous injection. The structure of Abextide II is shown below.
(§2) Plasma glucose levels and body weight were measured, and an intravenous glucose tolerance test (IVGTT) was also performed to assess the efficacy and pharmacokinetics of the compounds.

plasma glucose = experiment: Intravenous glucose tolerance test (IVGTT) in Type 2 diabetic cynomolgus monkeys; format: in vivo; conditions: plasma glucose at 0, 5, 15 and 30 min; 2 hours after treatment vs one week before
Experimental: as §1, §2
Intravenous glucose tolerance test was performed on all animals one week before (baseline) and 2 hours after treatment. […] The areas under curve (AUCs) of the plasma glucose level at 0, 5, 15 and 30 min were calculated to quantify IVGTT.

With Albiglutide the “reduction of blood glucose level” value (blood glucose) was “unable to reduce blood glucose level” and the “IVGTT area under curve (AUC) of plasma glucose level versus baseline before treatment” value (plasma glucose) was “significant differences were not observed”.
